Reference: PubChem BioAssay (NCI)
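Five compound concentrations were applied to cells in 96-well plates for 48 hours; endpoints were derived by simple linear interpolation of the resulting dose-response curve. GI50: concentration for 50% inhibition of growth. TGI: total growth inhibition.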

Columns and labels:
Assay in all cases: DTP human tumour cell line panel, 48 h
[1] = tested on: MCF7 breast
[2] = tested on: SR leukemia
[3] = tested on: OVCAR-4 ovarian
[4] = tested on: U251 CNS
[5] = tested on: CCRF-CEM leukemia
[6] = tested on: M14 melanoma
[7] = tested on: OVCAR-3 ovarian
[8] = tested on: A549 NSCLC
[9] = tested on: SK-MEL-2 melanoma
[10] = tested on: T-47D breast
[11] = tested on: SK-OV-3 ovarian
[12] = tested on: UACC-62 melanoma
[13] = tested on: SF-268 CNS
[14] = tested on: NCI-H522 lung
[15] = tested on: PC-3 prostate
[16] = tested on: HOP-62 NSCLC
[17] = tested on: HCC-2998 colon
[18] = tested on: 786-0 renal
[19] = tested on: LOX IMVI melanoma
[20] = tested on: IGROV1 ovarian
[21] = tested on: SK-MEL-5 melanoma
[22] = tested on: HOP-92 NSCLC
[23] = tested on: HT29 colon
[24] = tested on: OVCAR-5 ovarian
[25] = tested on: MOLT-4 leukemia
[26] = tested on: MDA-MB-435
[27] = tested on: SNB-19 CNS
[28] = tested on: EKVX NSCLC
[29] = tested on: SF-539 CNS
[30] = tested on: SF-295 CNS
[31] = tested on: OVCAR-8 ovarian
[32] = tested on: HCT-15 colon
[33] = tested on: NCI/ADR-RES ovarian
[34] = tested on: ACHN renal
[35] = tested on: UO-31 renal
[36] = tested on: SW-620 colon
[37] = tested on: HS 578T breast
[38] = tested on: HCT-116 colon
[39] = tested on: MDA-MB-231 breast
[40] = tested on: DU-145 prostate
[41] = tested on: HL-60(TB) leukemia
[42] = tested on: UACC-257 melanoma
[43] = tested on: BT-549 breast
[44] = tested on: SK-MEL-28 melanoma
[45] = tested on: SNB-75 CNS
[46] = tested on: SN12C renal
[47] = tested on: MALME-3M melanoma
[48] = tested on: NCI-H226 lung
[49] = tested on: NCI-H23 lung
[50] = tested on: NCI-H460 lung
[51] = tested on: KM12 colon
[52] = tested on: A498 renal
[53] = tested on: RXF 393 renal
[54] = tested on: TK-10 renal

O=C(Nc1ccc(S(=O)(=O)NC2CCCCCC2)cc1)C(c1ccccc1)S(=O)(=O)c1ccc(F)cc1 (stereo not drawn)
GI50 [1]: 124 nM | TGI [1]: 1610 nM | GI50 [2]: 410 nM | TGI [2]: 4.42 µM | GI50 [3]: 444 nM | TGI [3]: 4.16 µM | GI50 [4]: 510 nM | TGI [4]: 3.57 µM | GI50 [5]: 577 nM | TGI [5]: > 100 µM | GI50 [6]: 514 nM | TGI [6]: 2550 nM | GI50 [7]: 367 nM | TGI [7]: 2850 nM | GI50 [8]: 854 nM | TGI [8]: 2900 nM | GI50 [9]: 449 nM | TGI [9]: 2080 nM | GI50 [10]: 717 nM | TGI [10]: 4.83 µM | GI50 [11]: 335 nM | TGI [11]: 4.03 µM | GI50 [12]: 137 nM | TGI [12]: 690 nM | GI50 [13]: 933 nM | TGI [13]: 6.11 µM | GI50 [14]: 318 nM | TGI [14]: 2940 nM | GI50 [15]: 295 nM | TGI [15]: 2190 nM | GI50 [16]: 970 nM | TGI [16]: 3.86 µM | GI50 [17]: 868 nM | TGI [17]: 2350 nM | GI50 [18]: 448 nM | TGI [18]: 2680 nM | GI50 [19]: 112 nM | TGI [19]: 422 nM | GI50 [20]: 237 nM | TGI [20]: 2890 nM | GI50 [21]: 404 nM | TGI [21]: 1720 nM | GI50 [22]: 845 nM | TGI [22]: 3.9 µM | GI50 [23]: 214 nM | TGI [23]: 1560 nM | GI50 [24]: 374 nM | TGI [24]: 3.15 µM | GI50 [25]: 432 nM | TGI [25]: > 100 µM | GI50 [26]: 313 nM | TGI [26]: 1430 nM | GI50 [27]: 622 nM | TGI [27]: 37.2 µM | GI50 [28]: 377 nM | TGI [28]: 2950 nM | GI50 [29]: 389 nM | TGI [29]: 1880 nM | GI50 [30]: 349 nM | TGI [30]: 2920 nM | GI50 [31]: 702 nM | TGI [31]: 4.68 µM | GI50 [32]: 182 nM | TGI [32]: 2080 nM | GI50 [33]: 1240 nM | TGI [33]: 4.66 µM | GI50 [34]: 153 nM | TGI [34]: 491 nM | GI50 [35]: 202 nM | TGI [35]: 3.52 µM | GI50 [36]: 84 nM | TGI [36]: 1980 nM | GI50 [37]: 588 nM | TGI [37]: 3.05 µM | GI50 [38]: 185 nM | TGI [38]: 1700 nM | GI50 [39]: 350 nM | TGI [39]: 1940 nM | GI50 [40]: 261 nM | TGI [40]: 2680 nM | GI50 [41]: 357 nM | TGI [41]: 2510 nM | GI50 [42]: 621 nM | TGI [42]: 2980 nM | GI50 [43]: 348 nM | TGI [43]: 1610 nM | GI50 [44]: 245 nM | TGI [44]: 1020 nM | GI50 [45]: 508 nM | TGI [45]: 2170 nM | GI50 [46]: 371 nM | TGI [46]: 1810 nM | GI50 [47]: 250 nM | TGI [47]: 1810 nM | GI50 [48]: 390 nM | TGI [48]: 3.43 µM | GI50 [49]: 187 nM | TGI [49]: 933 nM | GI50 [50]: 36.7 nM | TGI [50]: 1100 nM | GI50 [51]: 321 nM | TGI [51]: 1960 nM | GI50 [52]: 870 nM | TGI [52]: 2080 nM | GI50 [53]: 217 nM | TGI [53]: 562 nM | GI50 [54]: 331 nM | TGI [54]: 3.66 µM
